According to PubChem BioAssay (NCI):
Several values for one entry are separate records, joined by “and”; a condition that tells them apart may be missing. Equal values may be shown once.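 Assay format: 96-well plates, 48-hour exposure. At the GI50, growth is halved. TGI: total growth inhibition.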

Assays:
Test in all cases: DTP human tumour cell line panel, 48 h
[1] = tested on: HCT-15 colon
[2] = tested on: MDA-MB-231 breast
[3] = tested on: NCI-H460 lung
[4] = tested on: SN12C renal
[5] = tested on: SW-620 colon
[6] = tested on: NCI-H522 lung
[7] = tested on: NCI/ADR-RES ovarian
[8] = tested on: MOLT-4 leukemia
[9] = tested on: SK-MEL-28 melanoma
[10] = tested on: UACC-257 melanoma

SMILES	GI50 [1]	TGI [1]	GI50 [2]	TGI [2]	GI50 [3]	TGI [3]	GI50 [4]	TGI [4]	GI50 [5]	TGI [5]	GI50 [6]	TGI [6]	GI50 [7]	TGI [7]	GI50 [8]	TGI [8]	GI50 [9]	TGI [9]	GI50 [10]	TGI [10]
CCCC/C(=C\C1=C(C)C(=O)C(OC)=C(OC)C1=O)C(=O)O	> 100 µM	> 100 µM	33.9 µM	> 100 µM	> 100 µM	> 100 µM	> 100 µM	> 100 µM	> 100 µM	> 100 µM	> 100 µM	> 100 µM	> 100 µM	> 100 µM	6.54 µM	> 100 µM	> 100 µM	> 100 µM	> 100 µM	> 100 µM
CN(C)C(=S)SSC(=S)N(C)C	13.4 µM and 47.9 µM and 13.5 µM	29.4 µM and > 100 µM and 31 µM	–	42.9 µM and 32 µM and 53.5 µM	0.365 µM and 0.324 µM and 1.43 µM	25.2 µM and 13.6 µM and 53 µM	14.7 µM	28.7 µM and > 46.4 µM and 54.5 µM	–	22.8 µM and 22.1 µM and > 56.6 µM	–	14.7 µM and 10.4 µM and 8.24 µM	–	30.4 µM and 36 µM	–	75.1 µM and 37.5 µM and 23.8 µM	17.8 µM	42.4 µM and > 89.9 µM and > 54 µM	15 µM and 4.06 µM and 28.4 µM	30.5 µM and 39.9 µM and > 55.7 µM
N[C@H](CCC(=O)N[C@@H](Cc1c[nH]c2ccccc12)C(=O)O)C(=O)O	> 100 µM	> 100 µM	> 100 µM	> 100 µM	> 100 µM	> 100 µM	> 100 µM	> 100 µM	> 100 µM	> 100 µM	> 100 µM	> 100 µM	> 100 µM	> 100 µM	> 100 µM	> 100 µM	> 100 µM	> 100 µM	> 100 µM	> 100 µM
CC(C)c1[nH]nc2c1N=C(c1ccccc1Cl)c1cc([N+](=O)[O-])ccc1N2	3.86 µM	> 25 µM	7.92 µM	> 25 µM	5.77 µM	15.9 µM	8.17 µM	> 25 µM	2.2 µM	> 25 µM	2.29 µM	> 18.3 µM	6.37 µM	> 25 µM	6.76 µM	20.6 µM	6.26 µM	> 25 µM	10.1 µM	> 25 µM
O=C1CCCN1c1ccccc1I(=O)=O	> 100 µM	> 100 µM	> 100 µM	> 100 µM	> 100 µM	> 100 µM	> 100 µM	> 100 µM	> 100 µM	> 100 µM	> 100 µM	> 100 µM	> 100 µM	> 100 µM	> 100 µM	> 100 µM	> 100 µM	> 100 µM	> 100 µM	> 100 µM
c1ccc2c(c1)[nH]c1c2cc[n+]2cc3c(cc12)CCCC3	23.3 µM	> 100 µM and 23.2 µM	2.97 µM	10 µM and 12.7 µM	1.66 µM	4.54 µM and 3.22 µM	3.05 µM	12.8 µM and 12.1 µM	2.35 µM	11.6 µM and 16.2 µM	2.27 µM	5.48 µM and 6.23 µM	93.8 µM	> 100 µM	3.74 µM	13.7 µM and 3.73 µM	–	5.26 µM and 4.19 µM	2.09 µM	6.83 µM and 25.6 µM
COc1ccc(-c2ccc3c(N4CCOC[C@@H]4C)nc(N4CCOC[C@@H]4C)nc3n2)cc1CO	0.00526 µM and 0.0301 µM	> 100 µM	0.00595 µM and 0.0364 µM	13.8 µM	0.00417 µM and 0.0101 µM	> 100 µM	0.0053 µM and 0.0208 µM	> 100 µM	0.0078 µM and 0.0537 µM	> 100 µM	0.00484 µM	–	0.013 µM and 0.0584 µM	–	0.00584 µM and 0.0488 µM	> 6.64 µM and 37.1 µM	0.00476 µM and 0.0135 µM	0.181 µM	0.00454 µM and 0.023 µM	0.0285 µM
COc1ccc(-c2cnnn2-c2nonc2-n2cccc2)cc1	0.311 µM	> 100 µM	1.21 µM	> 25 µM	0.344 µM	11.6 µM	0.595 µM	> 100 µM	0.149 µM	> 100 µM	0.136 µM	0.487 µM	0.102 µM	0.67 µM	0.498 µM	12.6 µM	0.52 µM	> 100 µM	0.373 µM	35.1 µM
Nc1cc2c(cc1Br)[nH]c(=O)c1ccccc12	4.79 µM	20.8 µM	3.37 µM	54.9 µM	3.66 µM	18.5 µM	2.68 µM	13.8 µM	7.73 µM	29 µM	5.47 µM	19.8 µM	9.25 µM	35.1 µM	4.03 µM	43 µM	4.25 µM	15.5 µM	4.13 µM	17.1 µM
CC(C)[C@H](O)C(=O)N[C@@H](C)C(=O)N[C@@H]1C(=O)N(C)CCc2ccccc21	> 100 µM	> 100 µM	> 100 µM	> 100 µM	> 100 µM	> 100 µM	> 100 µM	> 100 µM	> 100 µM	> 100 µM	> 100 µM	> 100 µM	> 100 µM	> 100 µM	> 100 µM	> 100 µM	> 100 µM	> 100 µM	> 100 µM	> 100 µM
COc1ccc(C(CC(=O)c2ccc3c(c2)OCO3)c2c(O)c3ccccc3oc2=O)cc1OC (centres undefined)	–	> 100 µM	–	> 100 µM	–	> 100 µM	–	> 100 µM	–	> 100 µM	–	> 100 µM	–	> 100 µM	–	> 100 µM	–	> 100 µM	–	> 100 µM
OC(c1cc(-c2ccc(C(F)(F)F)cc2)nc(C(F)(F)F)c1)C1CCCCN1 (centres undefined)	1.7 µM	3.12 µM and 4.7 µM	1.72 µM and 2.42 µM	3.16 µM and 5.65 µM	1.81 µM	3.4 µM and 3.95 µM	1.79 µM and 3.13 µM	3.19 µM and 7.37 µM	–	3.33 µM and 3.36 µM	–	3.19 µM and 3.27 µM	1.65 µM	3.1 µM and 5.99 µM	1.32 µM	3.16 µM and 4.34 µM	1.83 µM and 2.55 µM	3.27 µM and 5.97 µM	–	3.59 µM and 3.69 µM
